The NIST ThermoML archive (doi:10.1021/acs.jced.5b00802)
± gives the expanded uncertainty stated by the source.

How the values were obtained:
[1] = xn = mol fraction of the nth substance listed; details: 100 kPa, Liquid; for speed of sound: Frequency=3 MHz, Sing-around technique in a fixed-path interferometer; for mass density: Vibrating tube method
[2] = refractive index (Na D-line) (dimensionless); xn = mol fraction of the nth substance listed; details: 100 kPa, Liquid, Standard Abbe refractometry

CCCCN [1-butanamine] + CN(C)C=O
Details	mass density, [1] [kg/m3]	refractive index, [2]	speed of sound, [1] [m/s]
293.15 K, x2 = 0.0599	747.39 ± 1.8	1.40222 ± 0.0042	1277.7 ± 1.4
293.15 K, x2 = 0.1056	755.445 ± 1.8	1.40348 ± 0.0042	1285 ± 1.4
293.15 K, x2 = 0.1591	765.035 ± 1.9	1.40498 ± 0.0042	1293.8 ± 1.4
293.15 K, x2 = 0.201	–	1.40619 ± 0.0042	–
293.15 K, x2 = 0.2505	782.005 ± 1.9	1.4076 ± 0.0042	1309.6 ± 1.4
293.15 K, x2 = 0.3017	791.811 ± 1.9	1.40911 ± 0.0042	1318.9 ± 1.4
293.15 K, x2 = 0.3583	802.88 ± 2	1.41079 ± 0.0043	1329.6 ± 1.3
293.15 K, x2 = 0.3992	811.114 ± 2	1.412 ± 0.0043	1337.8 ± 1.3
293.15 K, x2 = 0.4401	–	1.41322 ± 0.0043	–
293.15 K, x2 = 0.5059	833.13 ± 2	1.41521 ± 0.0043	1359.6 ± 1.3
293.15 K, x2 = 0.5483	842.154 ± 2.1	–	1368.9 ± 1.3
293.15 K, x2 = 0.6043	–	1.41829 ± 0.0043	–
293.15 K, x2 = 0.6569	866.102 ± 2.1	1.41992 ± 0.0043	1393.7 ± 1.3
293.15 K, x2 = 0.6999	875.844 ± 2.1	1.42126 ± 0.0043	1404 ± 1.3
293.15 K, x2 = 0.7537	888.314 ± 2.2	1.42292 ± 0.0043	1416.7 ± 1.3
293.15 K, x2 = 0.8036	900.101 ± 2.2	1.42448 ± 0.0043	1429 ± 1.3
293.15 K, x2 = 0.8579	913.315 ± 2.2	1.42618 ± 0.0043	1442.3 ± 1.3
293.15 K, x2 = 0.9048	924.751 ± 2.3	1.42763 ± 0.0043	1453.7 ± 1.2
293.15 K, x2 = 0.9546	937.212 ± 2.3	1.42915 ± 0.0043	1465.6 ± 1.2
298.15 K, x2 = 0.0575	742.224 ± 1.8	1.39946 ± 0.0042	1255.4 ± 1.4
298.15 K, x2 = 0.1092	751.333 ± 1.8	1.40093 ± 0.0042	1263.9 ± 1.4
298.15 K, x2 = 0.1519	759.015 ± 1.9	1.40215 ± 0.0042	1271.1 ± 1.4
298.15 K, x2 = 0.2043	768.674 ± 1.9	1.40367 ± 0.0042	1280.1 ± 1.4
298.15 K, x2 = 0.2448	776.215 ± 1.9	1.40485 ± 0.0042	1287.4 ± 1.4
298.15 K, x2 = 0.309	788.51 ± 1.9	1.4068 ± 0.0042	1299.3 ± 1.4
298.15 K, x2 = 0.3558	797.705 ± 1.9	1.4082 ± 0.0042	1308.4 ± 1.3
298.15 K, x2 = 0.3986	806.285 ± 2	–	1317 ± 1.3
298.15 K, x2 = 0.4381	814.268 ± 2	–	1324.9 ± 1.3
298.15 K, x2 = 0.5028	827.736 ± 2	1.41274 ± 0.0043	1338.6 ± 1.3
298.15 K, x2 = 0.6005	848.795 ± 2.1	1.41578 ± 0.0043	1360.6 ± 1.3
298.15 K, x2 = 0.6608	–	1.41769 ± 0.0043	–
298.15 K, x2 = 0.6934	869.781 ± 2.1	1.41871 ± 0.0043	1382.5 ± 1.3
298.15 K, x2 = 0.7572	884.516 ± 2.2	1.42076 ± 0.0043	1398 ± 1.3
298.15 K, x2 = 0.8056	895.958 ± 2.2	1.4223 ± 0.0043	1410 ± 1.3
298.15 K, x2 = 0.8546	–	1.42383 ± 0.0043	–
298.15 K, x2 = 0.9076	920.837 ± 2.2	1.42553 ± 0.0043	1435.1 ± 1.2
298.15 K, x2 = 0.9553	932.723 ± 2.3	1.42705 ± 0.0043	1446.6 ± 1.2
303.15 K, x2 = 0.0505	736.213 ± 1.8	1.39644 ± 0.0042	1233 ± 1.4
303.15 K, x2 = 0.1477	753.539 ± 1.8	1.39927 ± 0.0042	1249.4 ± 1.4
303.15 K, x2 = 0.2019	763.466 ± 1.9	1.40087 ± 0.0042	1259 ± 1.4
303.15 K, x2 = 0.241	770.708 ± 1.9	1.40209 ± 0.0042	1266 ± 1.4
303.15 K, x2 = 0.3024	782.423 ± 1.9	1.40392 ± 0.0042	1277.5 ± 1.4
303.15 K, x2 = 0.3558	792.882 ± 1.9	1.40552 ± 0.0042	1287.8 ± 1.3
303.15 K, x2 = 0.3992	–	1.40686 ± 0.0042	–
303.15 K, x2 = 0.4358	808.96 ± 2	1.40802 ± 0.0042	1304.1 ± 1.3
303.15 K, x2 = 0.5114	824.673 ± 2	1.41041 ± 0.0042	1320.3 ± 1.3
303.15 K, x2 = 0.5281	828.281 ± 2	1.41094 ± 0.0043	1324 ± 1.3
303.15 K, x2 = 0.6056	845.104 ± 2.1	1.41337 ± 0.0043	1341.6 ± 1.3
303.15 K, x2 = 0.6574	–	1.41502 ± 0.0043	–
303.15 K, x2 = 0.696	865.473 ± 2.1	1.41625 ± 0.0043	1363.2 ± 1.3
303.15 K, x2 = 0.7558	879.286 ± 2.1	1.4182 ± 0.0043	1377.7 ± 1.3
303.15 K, x2 = 0.8006	889.962 ± 2.2	1.41964 ± 0.0043	1389 ± 1.3
303.15 K, x2 = 0.8544	902.88 ± 2.2	1.42138 ± 0.0043	1402.3 ± 1.2
303.15 K, x2 = 0.8998	914.033 ± 2.2	1.42282 ± 0.0043	1413.7 ± 1.2
303.15 K, x2 = 0.9466	925.732 ± 2.3	1.42431 ± 0.0043	1425.2 ± 1.2

CCCNCCC [dipropylamine] + CN(C)C=O
Details	mass density, [1] [kg/m3]	refractive index, [2]	speed of sound, [1] [m/s]
293.15 K, x2 = 0.06	745.894 ± 1.8	1.40543 ± 0.0042	1218.2 ± 1.4
293.15 K, x2 = 0.1071	752.141 ± 1.8	–	1225 ± 1.4
293.15 K, x2 = 0.1556	–	1.40725 ± 0.0042	–
293.15 K, x2 = 0.156	758.933 ± 1.8	–	1232.9 ± 1.4
293.15 K, x2 = 0.1975	764.87 ± 1.9	–	1239.3 ± 1.4
293.15 K, x2 = 0.249	772.54 ± 1.9	–	1248.1 ± 1.4
293.15 K, x2 = 0.2614	–	1.40952 ± 0.0042	–
293.15 K, x2 = 0.3099	782.194 ± 1.9	–	1259.4 ± 1.3
293.15 K, x2 = 0.3463	788.151 ± 1.9	1.4114 ± 0.0043	1266.2 ± 1.3
293.15 K, x2 = 0.3985	797.199 ± 1.9	1.41266 ± 0.0043	1276.9 ± 1.3
293.15 K, x2 = 0.448	806.192 ± 2	–	1287.6 ± 1.3
293.15 K, x2 = 0.4554	–	1.41402 ± 0.0043	–
293.15 K, x2 = 0.4974	815.656 ± 2	–	1299.2 ± 1.3
293.15 K, x2 = 0.5487	825.989 ± 2	1.41645 ± 0.0043	1312 ± 1.3
293.15 K, x2 = 0.6018	–	1.41789 ± 0.0043	–
293.15 K, x2 = 0.6562	849.651 ± 2.1	–	1342.1 ± 1.3
293.15 K, x2 = 0.7033	–	1.42079 ± 0.0043	–
293.15 K, x2 = 0.7514	873.097 ± 2.1	–	1373.4 ± 1.3
293.15 K, x2 = 0.8216	892.212 ± 2.2	1.42444 ± 0.0043	1399.8 ± 1.3
293.15 K, x2 = 0.8501	900.523 ± 2.2	–	1411.2 ± 1.4
293.15 K, x2 = 0.8844	–	1.42653 ± 0.0043	–
293.15 K, x2 = 0.9025	916.508 ± 2.3	–	1433.3 ± 1.4
293.15 K, x2 = 0.9486	931.283 ± 2.3	1.42882 ± 0.0043	1453.4 ± 1.4
298.15 K, x2 = 0.0626	741.577 ± 1.8	1.40259 ± 0.0042	1196.9 ± 1.4
298.15 K, x2 = 0.1083	747.697 ± 1.8	1.40358 ± 0.0042	1204 ± 1.4
298.15 K, x2 = 0.1544	754.025 ± 1.8	1.40443 ± 0.0042	1211.2 ± 1.4
298.15 K, x2 = 0.2541	768.732 ± 1.9	1.40662 ± 0.0042	1228.1 ± 1.4
298.15 K, x2 = 0.3148	778.293 ± 1.9	1.40796 ± 0.0042	1239.3 ± 1.3
298.15 K, x2 = 0.3609	786.012 ± 1.9	1.40908 ± 0.0042	1248.3 ± 1.3
298.15 K, x2 = 0.4077	794.223 ± 1.9	1.41017 ± 0.0042	1258.2 ± 1.3
298.15 K, x2 = 0.4966	810.8 ± 2	1.41247 ± 0.0043	1278.5 ± 1.3
298.15 K, x2 = 0.5386	819.199 ± 2	–	1288.9 ± 1.3
298.15 K, x2 = 0.6082	833.997 ± 2	–	1307.9 ± 1.3
298.15 K, x2 = 0.6527	844.084 ± 2.1	1.41673 ± 0.0043	1321.1 ± 1.3
298.15 K, x2 = 0.7477	867.448 ± 2.1	1.4196 ± 0.0043	1352.4 ± 1.3
298.15 K, x2 = 0.8063	883.226 ± 2.2	1.42147 ± 0.0043	1374 ± 1.3
298.15 K, x2 = 0.902	911.457 ± 2.2	1.42478 ± 0.0043	1413.1 ± 1.4
298.15 K, x2 = 0.9482	926.367 ± 2.3	1.42645 ± 0.0043	1433.5 ± 1.4
303.15 K, x2 = 0.0453	734.885 ± 1.8	1.39971 ± 0.0042	1174 ± 1.4
303.15 K, x2 = 0.1034	742.55 ± 1.8	1.40091 ± 0.0042	1183 ± 1.4
303.15 K, x2 = 0.1963	755.529 ± 1.8	1.40293 ± 0.0042	1198 ± 1.4
303.15 K, x2 = 0.2582	764.775 ± 1.9	1.40419 ± 0.0042	1208.8 ± 1.4
303.15 K, x2 = 0.3559	780.614 ± 1.9	1.40647 ± 0.0042	1227.6 ± 1.3
303.15 K, x2 = 0.4099	790.03 ± 1.9	1.40779 ± 0.0042	1239 ± 1.3
303.15 K, x2 = 0.4565	798.539 ± 1.9	–	1249.4 ± 1.3
303.15 K, x2 = 0.5415	815.193 ± 2	–	1270.3 ± 1.3
303.15 K, x2 = 0.6016	827.909 ± 2	1.41295 ± 0.0043	1286.6 ± 1.3
303.15 K, x2 = 0.6517	839.209 ± 2.1	–	1301.4 ± 1.3
303.15 K, x2 = 0.7502	863.388 ± 2.1	1.41745 ± 0.0043	1334 ± 1.3
303.15 K, x2 = 0.8498	890.941 ± 2.2	1.4207 ± 0.0043	1372 ± 1.3
303.15 K, x2 = 0.9	906.165 ± 2.2	1.42246 ± 0.0043	1393.2 ± 1.4
303.15 K, x2 = 0.9498	922.203 ± 2.3	1.42417 ± 0.0043	1415.2 ± 1.4
